The source of these data is patent US7220784B2, “Substituted stilbenes and their reactions” (priority 2000, dated 2007).

The structures appear in SMILES notation. pIC50: −log10 of the molar value. Values joined by “and” are separate entries in the source; they are usually repeats but may differ in a detail not shown here. Equal values may be shown once. Read-outs that look alike come from different tables or passages of the source. Bounds are passed on as bounds.

One assay deals with A2780. Put plainly: Cytotoxicity/growth inhibition assay (MTT), A2780. It counts as cell-based. The settings on record: for pIC50: read-out: A2780 IC50; for IC50: read-out: IC50 (nM) A2780. Put shortly:
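MTT cytotoxicity/growth-inhibition assay in human cell lines including A2780, A2780/ADR, H460 and HUVEC.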

The subject of assay [1] is colchicine binding site on tubulin. Put plainly: Competition for the colchicine binding site on tubulin.
The test system of assay [2] is H460 human lung cell line. Put plainly: Cytotoxicity/growth inhibition assay (MTT), H460. It counts as cell-based. The protocol: (§1) The following assays (1–5) were carried out as described in our paper (Woods, et al, British Journal of Cancer, 71, 705–711 (1995)). In addition to the cell lines described in this paper, other established human cell lines (K562, HUVEC, H460, BE, H529, and HT29) were used in the cytotoxicity/growth inhibition assay. • (1) Inhibition of tubulin assembly. The figure quoted is the concentration required to reduce assembly of tubulin by 50%. Tubulin assembly is monitored by light scatter/absorption at 350 nm.
(§2) (2) Competition for the colchicine binding site on tubulin. The figure quoted represents the % of ^3H-colchicine bound following co-incubation of test compound and ^3H-cochicine with isolated tubulin. Where ester pro-drugs were used the experiments were carried out in the presence and absence of porcine liver esterase. • (3) Cytotoxicity/growth inhibition assay. This was carried out by the MTT assay. • (4) Permeability (shape-change) assay in endothelial cells. This was carried out using a method based on that of Watts et al. (Anticancer Res., 17, 71–75, (1997)). This involved the diffusion of a fluorescently labelled dextran through a barrier of endothelial cells (HUVEC) grown to confluence on a porous membrane. The effect of agents to alter the shape of these cells results in an increase in the permeability of the cells to the dye. The figure represents the increase in permeability over control cultures when drug is added (30 minutes, 1 mM.). • (5) Experiments to study the anti-vascular effects of these agents were carried out as described previously by our group. (Zhao et al, European Journal of Nuclear Medicine, 26, 231–238 (1999)). The anti-vascular effects of the agents were monitored by either positron emission tomography (PET) or by histologogical examination following treatment of mice bearing T50:80 murine breast tumours, or H460 human lung tumours. • (6) Anti-tumour efficacy of agents was determined in xenografts of H460 human lung cancer. Animals (n=5) were trated either with 5 daily injections and tumour size measured with time following treatment. • (7) The pharmacokinetic profile of agents was determined in mice following injection with drug. Blood was taken at various times following treatment and analysed by HPLC with UV detection. The HPLC conditions were isocratic using a 5 micron C18 BDS column (150×4.6) ad eluting with 75% MeOH in water with a detection wavelength of 290 nm. […] (AND(P)H:quinone oxidoreductace, EC 1.6.99.2). DT-diaphorase is an enzyme over-expressed in a number of human tumours. […] This two-electron reducing enzyme can be used to selectively activate prodrugs within cancers which over-express the enzyme.

In assay [3] the test system is P388 murine leukaemia cell line. Description: Cytotoxicity/growth inhibition assay (MTT), P388. It is filed as cell-based. The method, boiled down: (§3)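 Growth inhibition of P388 murine and K562 human leukaemia cells measured by MTT assay.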
A further assay has as its system T1, tubulin.
T1 construct: other: concentration required to reduce assembly of tubulin by 50%
Description: Inhibition of tubulin assembly. The settings on record: concentration required to reduce assembly of tubulin by 50%. It counts as biochemical. The protocol: as §1

Assay [4] deals with K562 human myelogeneous leukaemia cell line. Description: Cytotoxicity/growth inhibition assay (MTT), K562. It is filed as cell-based. The settings on record: Homo sapiens, K562; MTT; read-out: K562 IC50. Put shortly:
as §3

The test system of a further assay is HUVEC. Put plainly: Growth inhibition studies using HUVEC. It counts as cell-based, human. Here is the method:
as §1, §2

In assay [5] the test system is colchicine binding site on tubulin. Put plainly: Competition for the colchicine binding site on tubulin. The settings on record: % of 3H-colchicine bound; for Colchicine displacement protein:drug 1:10 (with esterase): with porcine liver esterase. Here is the method: as §2, with “This was carried out using a method based on that of Watts et al. (Anticancer Res., 17, 71–75, (1997)).” left out, “(Zhao et al, European Journal of Nuclear Medicine, 26, 231–238 (1999)).” left out, “detection.” for “detection. The HPLC conditions were isocratic using a 5 micron C18 BDS column (150×4.6) ad eluting with 75% MeOH in water with a detection wavelength of 290 nm.”

Another assay concerns A2780/ADR. Put plainly: Cytotoxicity/growth inhibition assay (MTT), A2780/ADR. It is filed as cell-based. Here is the method:
as §1, §2

Broadly, the pIC50 is the IC50 on a negative log10 scale, so that one unit is a factor of ten. Usually IC50 stands for the concentration at which inhibition is half-maximal. Regarding `COc1ccc(C=Cc2cc(OC)c(OC)c(OC)c2)cc1OC(=O)c1ccncc1` [Compound 97-07], the pIC50 in the assay with A2780 was 8.83; in [2] (Homo sapiens, NCI-H460), 5.56; in assay [3] (MTT), 8.64. In assay [1], the “Colchicine % Inhibition” value is 6.6% and 12.3%. The same compound registered a half-maximal inhibitory concentration (IC50) in the assay with tubulin of 10 µM.

Consider `COc1ccc(C=Cc2cc(OC)c(OC)c(OC)c2)c(F)c1F` [Compound 00-105], for which the “Colchicine % Inhibition” value in assay [1] is given as 3.6%. The negative-log IC50 (pIC50) in assay [4] was 7.70. Further, the IC50 in the assay on tubulin is above 100 µM.

As to `COc1ccc(/C=C\c2cc(OC)c(OC)c(OC)c2)cc1Oc1c(F)c(F)nc(F)c1F` [Compound 97-13H], the pIC50 was 7.75 in the assay on A2780, 7.46 to 7.49 in [2], 7.35 in the assay with HUVEC and 7.49 in assay [3] (MTT). Moreover, the “Colchicine % Inhibition” value in assay [1] is 84.2%. The same compound returned an IC50 in the assay on tubulin above 100 µM.

Take `COc1ccc(C=Cc2cc(OC)c(OC)c(OC)c2)cc1OCc1ccccc1[N+](=O)[O-]` [Compound 98-29]: the pIC50 is 6.42 in the assay on A2780 (Homo sapiens, A2780); 6.37 in the assay on HUVEC (Homo sapiens, HUVEC); 6.35 in assay [3] (Mus musculus, P388, MTT). For the same compound, the “Colchicine % Inhibition” value in assay [1] is recorded as 53%. Also, in the assay with tubulin, the IC50 is above 100 µM.

For the compound `COc1ccc(/C=C\c2cc(OC)c(OC)c(OC)c2)cc1OC(=O)C(Cc1c[nH]cn1)NC(=O)OC(C)(C)C` (stereo not drawn) [Compound 40], the IC50 with A2780 amounted to 2.2 nM; in the assay on tubulin it was 7 µM; in the assay with A2780/ADR, 4.3 nM. For the same compound, the “Colchicine displacement protein:drug 1:10 (with esterase)” value in assay [5] came out at 4%. The “Colchicine displacement protein:drug 1:10 (without esterase)” value in [5] came to 2%.

On to `COc1ccc(C=Cc2cc(OC)c(OC)c(OC)c2)cc1F` [Compound 97-64L], for which the values for the negative logarithm of the IC50 (pIC50) (in the assay on A2780; in [3] (MTT)) were 6.95 and 6.77, respectively. Further, the “Colchicine % Inhibition” value in assay [1] is on record as 43%. The compound further had a concentration for half-maximal inhibition (IC50) in the assay with tubulin above 100 µM.

Turning to `COc1cc(/C=C\c2ccc(C)c(F)c2)cc(OC)c1OC` [Compound 98-35H], the negative-log IC50 (pIC50) with A2780 is 8.84; with HUVEC, 7.80; in assay [3] (MTT), 8.48. For the same compound, the “Colchicine % Inhibition” value in assay [1] was 5%. This compound displayed a half-maximal inhibitory concentration (IC50) in the assay with tubulin of 6.25 µM.

For `COc1ccc(/C=C\c2cc(OC)c(OC)c(OC)c2)cc1OC(=O)[C@@H](Cc1c[nH]c2ccccc12)NC(=O)OC(C)(C)C` [Compound 43], the IC50 in the assay on A2780 (Homo sapiens, A2780) was determined as 3.3 nM; in the assay with tubulin, 3 µM; with A2780/ADR (A2780 ADR), 3.8 nM. Further, in assay [5], the “Colchicine displacement protein:drug 1:10 (with esterase)” value is reported as 2%.

As to `COc1ccc(/C=C\c2cc(OC)c(OC)c(OC)c2)cc1OC(=O)[C@@H](CCSC)NC(=O)OC(C)(C)C` [Compound 42], the IC50 with A2780 (Homo sapiens, A2780) amounted to 2.9 nM; in the assay with tubulin it was 3.5 µM; in the assay with A2780/ADR (A2780 ADR), 2.9 nM. The “Colchicine displacement protein:drug 1:10 (with esterase)” value in [5] is reported as 2%.

Take `COc1ccc(C=Cc2cc(OC)c(OC)c(OC)c2)cc1OC(=O)c1ccncc1` [Compound 96-167]: the negative-log IC50 (pIC50) with A2780 is 9.43; in the assay with HUVEC (Homo sapiens, HUVEC) it was 7.40; in assay [3] (MTT), 9.10. Further, in [1], the “Colchicine % Inhibition” value is on record as 3.8%. The same compound had a half-inhibitory concentration (IC50) in the assay on tubulin of 9 µM.

As for `COc1ccc(C=Cc2cc(OC)c(OC)c(OC)c2)cc1OC(=O)C(CCSC)NC(=O)OC(C)(C)C` (stereo not drawn) [Compound 37], the IC50 came out at 6.7 nM in the assay with A2780 (Homo sapiens, A2780); 6 µM with tubulin; 9.1 nM in the assay with A2780/ADR (A2780 ADR). In addition, the “Colchicine displacement protein:drug 1:10 (with esterase)” value in assay [5] was determined as 2%. Further, the “Colchicine displacement protein:drug 1:10 (without esterase)” value in [5] was determined as 88%.

Turning to `COc1ccc(C=Cc2cc(OC)c(OC)c(OC)c2)cc1OC(=O)C1CCCN1C(=O)OC(C)(C)C` (stereo not drawn) [Compound 41], the concentration for half-maximal inhibition (IC50) stood at 29 nM with A2780 (Homo sapiens, A2780); 9 µM in the assay with tubulin; 39 nM in the assay on A2780/ADR (A2780 ADR). In addition, the “Colchicine displacement protein:drug 1:10 (with esterase)” value in assay [5] is reported as 2%. For the same compound, the “Colchicine displacement protein:drug 1:10 (without esterase)” value in assay [5] was determined as 78%.

With `COc1cc(C=Cc2cc(F)c(OC)c(F)c2)cc(OC)c1OC` [Compound 00-82], the pIC50 in the assay on A2780 (Homo sapiens, A2780) is 7.22; in assay [4] it was 7.30. In assay [1], the “Colchicine % Inhibition” value is given as 39.5%. The compound also showed an IC50 in the assay on tubulin of 7.2 µM.

`COc1cc(C=Cc2ccc(C)c(O)c2)cc(OC)c1OC` [Compound 98-21]: the negative-log IC50 (pIC50) in the assay on A2780 (Homo sapiens, A2780) is 9.18; in the assay on HUVEC (Homo sapiens, HUVEC), 8.02; in [3] (Mus musculus, P388, MTT), 9.03. Besides, the “Colchicine % Inhibition” value in [1] was determined as 1.4%. Besides, the IC50 in the assay with tubulin was below 1.25 µM.

As to `COc1ccc(C=Cc2cc(OC)c(OC)c(OC)c2)cc1OC(=O)C(CC(C)C)NC(=O)OC(C)(C)C` (stereo not drawn) [Compound 38], the IC50 with A2780 (Homo sapiens, A2780) amounted to 14 nM; with tubulin it was 7.8 µM; in the assay on A2780/ADR (A2780 ADR), 27 nM. Besides, the “Colchicine displacement protein:drug 1:10 (without esterase)” value in assay [5] was determined as 72%.
